Results published in ChEMBL document CHEMBL6120959.
Calls of active or inactive are those of the source. The rule behind the calls is not given here.

What was measured:
[1] = target: T1, Histone deacetylase (Homo sapiens) (UniProt Q13547+O15379+Q9UBN7+Q92769+Q9UQL6+Q8WUI4+Q9BY41+Q96DB2+P56524+Q9UKV0+Q969S8); assay type: cell-based; settings: HCT-116, dose 0.063-1 µM, time 48.0 hrs
[2] = target: T1, Histone deacetylase (Homo sapiens); assay type: cell-based; settings: HCT-116, dose 0.063-1 µM, time 48.0 hrs; remark: listed apart in the source
[3] = target: Lysine-specific histone demethylase 1A (Homo sapiens) (UniProt O60341); assay: Inhibition of LSD1 (unknown origin) demethylase-mediated FAD-dependent H2O2 production at 1 uM by fluorescence coupling enzyme assay
[4] = target: Lysine-specific histone demethylase 1A (Homo sapiens) (UniProt O60341); assay type: tissue-based; settings: Colorectal cancer organoid, dose 0.313-5 µM, time 10.0 day
[5] = target: Lysine-specific histone demethylase 1A (Homo sapiens) (UniProt O60341); assay type: cell-based; settings: HCT-116, dose 0.063-1 µM, time 48.0 hrs
[6] = target: Lysine-specific histone demethylase 1A (Homo sapiens) (UniProt O60341); assay: Inhibition of LSD1 in patient-derived human Colorectal cancer organoid at >2.5 uM treated for 10 days by IHC analysis; assay type: tissue-based; settings: time 10.0 day
[7] = target: T1, Histone deacetylase (Homo sapiens); assay: Inhibition of HDAC in patient-derived human Colorectal cancer organoid assessed as increase in acetyl-tubulin level at 0.313 to 5 uM treated for 10 days by Western blot analysis; assay type: tissue-based; settings: dose 0.313-5 µM, time 10.0 day
[8] = target: T1, Histone deacetylase (Homo sapiens); assay: Inhibition of HDAC in patient-derived human Colorectal cancer organoid assessed as increase in acetyl-histone H3 level at 0.313 to 5 uM treated for 10 days by Western blot analysis; assay type: tissue-based; settings: dose 0.313-5 µM, time 10.0 day
[9] = target: Lysine-specific histone demethylase 1A (Homo sapiens) (UniProt O60341); assay type: tissue-based; settings: Colorectal cancer organoid, dose > 2.5 µM, time 10.0 day

inhibition [1]	inhibition [2]	inhibition [4]	inhibition [6]	inhibition [7]	inhibition [8]	inhibition [9]	Structure (SMILES)	inhibition [3]	inhibition [5]
Dose-dependent-effect	Dose-dependent-effect	Active	Active	Active	Active	Active	O=C(/C=C/c1cccc(S(=O)(=O)N[C@@H]2C[C@H]2c2ccccc2)c1)NO	Active; More Effective Than Standard Lsd1 Inhibitor At All Concentrations Tested	Active
							O=C(CCCCCCC(=O)Nc1ccccc1)NO		Active; Compound Might Have Indirect Lsd1 Inhibitory Effect
